From patent US20070135437A1, “Modulation of neurodegenerative diseases” (ALSGEN, INC., priority 2005, published 2007)
pIC50: −log10 of the molar value.

Columns and labels:
Assay type in all cases: cell-based, human
[1] = tested on: hSOD-1 protein levels in HeLa cells; test: SOD-1 ELISA on lysates of HeLa cells after 72 h incubation with compound
Procedure: Briefly, cells were maintained in Dulbecco's Minimal Essential Medium, with high glucose, supplemented with glutamine, 4 mM, certified fetal bovine serum, 10%, and penicillin, streptomycin, and nystatin (all from Invitrogen). Incubation conditions were 37 degrees and 99% relative humidity, with CO2 at 5%. Cultures were passaged when they reached 90% confluence. For pharmacological experiments, cells were plated into sterile tissue culture treated 96 well plates at a density of 3,500 cells/well in 150 μl medium. After plating and 6 hours for attachment, drugs were added to the medium in a concentration of 10 μM. Following 72 hours of incubation with the drugs, the cells were photographed at 100× using an inverted microscope and digital camera, so that cytotoxicity could be evaluated. After photodocumentation, the medium was removed and the cells were washed once with phosphate buffered saline, and then 50-100 μl molecular biology grade water containing a protease inhibitor cocktail was added. After 10 min incubation, the plates were placed in −80 degrees to induce complete lysis. Plates were then thawed and 4-25 μl was transferred from each well into a maxsorp ELISA plate coated with anti-human SOD-1 antibody, which contained 75-100 μl phosphate buffered saline or blocking buffer. A second antibody pair (a polyclonal anti-SOD-1/HRP conjugated goat anti-rabbit) was then added to the well, and incubation was conducted for 1 hour at room temperature. At the conclusion of the incubation, the plate was washed three times (wash buffer from KPL Inc.) and Sure Blue Reserve HRP Substrate was added. Following a 5-10 min incubation, the reaction (which had turned blue to varying degrees) was stopped by the addition of a stop reagent (KPL). The plate was then shaken gently for 5 seconds and the absorbance at 450 nm read on a Tecan Plate reader. Absorbance from each sample were compared to standard curve of purified recombinant human SOD-1 assayed on the same ELISA plate, and SOD-1 immunoreactivity (ng/ml) was estimated by comparison with the standard curve. This example describes how to examine the in vitro effects of the antimalarial drug, pyrimethamine, as well as the compounds listed in Tables 1 through 5, on SOD-1 activity. The human cervical carcinoma derived HeLa cell line (ATCC) were cultured in Dulbecco's Minimal Essential Medium, with high glucose, supplemented with glutamine, 4 mM, certified fetal bovine serum, 10%, and penicillin, streptomycin, and nystatin (all from Invitrogen). Incubation conditions were 37° C. and 99% relative humidity, with CO2 at 5%. Cultures were passaged when they reached 90% confluence. For pharmacological experiments, cells were plated into sterile tissue culture treated 96 well plates at a density of 3,500 cells/well in 150 μl medium. Following 72 hours of incubation with each of the compounds, the cells were photographed and processed as described in Example 1 (iii). The total protein of the lysates was determined by Bradford assay as described in Example 1 (iv).

[2] = tested on: hSOD-1 protein levels in HeLa cells; test: as above; conditions: 72 hours before harvest, FIG. 1, read-out: IC50 for reduction of SOD-1 protein
[3] = tested on: HeLa cells; test: Bradford total protein assay of HeLa lysates (check for cytotoxic effects); conditions: 72 hours
Procedure: To determine if decrements found in the SOD-1 assay were simply the result of cytotoxic effects of the drug treatment, total protein was determined for each well. While the ELISA incubation was ongoing, 10 μl of the remaining lysate was removed from each well and placed into another empty plate, and BioRad Bradford reagent (100 μl) was added to the protein. After a 15 min incubation at room temperature the plate was shaken gently for 5 seconds and the absorbance was read at 595 nm in a Tecan Sunrise plate reader. Protein concentrations in each well were thus determined by comparison with protein standards that were run on the same plate.
Following 72 hours of incubation with each of the compounds, the cells were photographed and processed as described in Example 1 (iii). The total protein of the lysates was determined by Bradford assay as described in Example 1 (iv). […] This reduction was dose related and maximal by 10 μM, with an IC50 of less than 3 μM. […] The biological activity results recorded in Tables 1B, 2, 3, 4, and 5 show the % reduction of hSOD-1 protein levels in HeLa cells following 72 h treatment with 10 μM of each compound.

[4] = Table 1B, % reduction of hSOD-1 protein levels in HeLa cells, 72 h treatment, 10 μM
[5] = Table 2, % reduction of hSOD-1 protein levels in HeLa cells, 72 h treatment, 10 μM
[6] = Table 5 heterocyclic amides, % reduction of hSOD-1 protein levels in HeLa cells following 72 h treatment with 10 μM compound

Cc1cc(-c2ccccc2)nc(N(C)C)n1 [Compound 1]
Biological Activity (% inhibition at 10 μM) [1, 4]: 33%

CN(C)c1cc(Cl)nc(SCc2ccccc2)n1 [Compound 2]
Biological Activity (% inhibition at 10 μM) [1, 4]: 77%

Cc1cc(C)nc(SCc2cccc(Br)c2)n1 [Compound 3]
Biological Activity (% inhibition at 10 μM) [1, 4]: 88%

Cc1ccc(Nc2nc(Cl)nc(Cl)c2Cl)cc1 [Compound 4]
Biological Activity (% inhibition at 10 μM) [1, 4]: 96%

Cc1cnc(SCc2ccccc2Cl)nc1O [Compound 5]
Biological Activity (% inhibition at 10 μM) [1, 4]: 79%

CCc1nc(N)nc(N)c1-c1ccc(Cl)cc1 [Compound 6]
Biological Activity (% inhibition at 10 μM) [1, 4]: 50%

Cc1cccc(Oc2cnc(S)nc2O)c1 [Compound 7]
Biological Activity (% inhibition at 10 μM) [1, 4]: 94%

Nc1nc(S)ncc1-c1cccc(Cl)c1 [Compound 8]
Biological Activity (% inhibition at 10 μM) [1, 4]: 99%

N#Cc1ccc(CSc2nc(O)cc(O)n2)cc1 [Compound 9]
Biological Activity (% inhibition at 10 μM) [1, 4]: 58%

CCCOc1ccc(-c2cnc(S)nc2N)cc1 [Compound 10]
Biological Activity (% inhibition at 10 μM) [1, 4]: 99%

CCOc1ccc(-c2cnc(S)nc2N)cc1 [Compound 11]
Biological Activity (% inhibition at 10 μM) [1, 4]: 99%

COc1ccc(Cc2c(Cl)nc(SC)nc2Cl)cc1 [Compound 12]
Biological Activity (% inhibition at 10 μM) [1, 4]: 40%

CC(Oc1ccc(Cl)cc1)c1ccnc(N)n1 (stereo not drawn) [Compound 22]
Biological Activity (% inhibition at 10 μM) [1, 4]: 84%

Nc1nc(O)ncc1-c1ccc(Cl)cc1 [Compound 23]
Biological Activity (% inhibition at 10 μM) [1, 4]: 99%

Nc1nc(SCC(=O)O)ncc1-c1ccc(Cl)cc1 [Compound 24]
Biological Activity (% inhibition at 10 μM) [1, 4]: 99%

Cc1ccc(Oc2cnc(S)nc2O)cc1 [Compound 25]
Biological Activity (% inhibition at 10 μM) [1, 4]: 97%

Cc1nc(N)nc(O)c1C=CCc1ccc(Cl)cc1 [Compound 26]
Biological Activity (% inhibition at 10 μM) [1, 4]: 97%

Cc1nc(N)nc(N)c1CCCCc1ccc(O)cc1 [Compound 27]
Biological Activity (% inhibition at 10 μM) [1, 4]: 95%

CSc1ncc(Oc2ccc(Cl)cc2)c(O)n1 [Compound 88]
Biological Activity (% inhibition at 10 μM) [1, 4]: 90%

COc1ccc(-c2cc(O)ncn2)cc1OC [Compound 89]
Biological Activity (% inhibition at 10 μM) [1, 4]: 84%

Nc1ccc(Sc2cc(Cl)nc(N)n2)cc1 [Compound 92]
Biological Activity (% inhibition at 10 μM) [1, 4]: 81%

Cc1cc(C)nc(NC(=N)Nc2cccc(Cl)c2)n1 [Compound 93]
Biological Activity (% inhibition at 10 μM) [1, 4]: 78%

Cc1cc(C)nc(Sc2ccc(N)cc2)n1 [Compound 94]
Biological Activity (% inhibition at 10 μM) [1, 4]: 77%

CSc1nc(N)nc(-c2ccc(Cl)cc2)c1C#N [Compound 95]
Biological Activity (% inhibition at 10 μM) [1, 4]: 76%

CCc1c(O)ncnc1-c1ccc(C)cc1 [Compound 96]
Biological Activity (% inhibition at 10 μM) [1, 4]: 70%

CSc1ccc(CCCc2c(C)nc(N)nc2N)cc1 [Compound 97]
Biological Activity (% inhibition at 10 μM) [1, 4]: 69%

COc1ccc(Cc2c(C)nc(N)nc2O)cc1 [Compound 98]
Biological Activity (% inhibition at 10 μM) [1, 4]: 67%

Oc1ccnc(SCc2ccc(Cl)cc2Cl)n1 [Compound 99]
Biological Activity (% inhibition at 10 μM) [1, 4]: 66%

COc1ccc(CCCc2c(C)nc(N)nc2N)cc1 [Compound 100]
Biological Activity (% inhibition at 10 μM) [1, 4]: 65%

Oc1ccnc(SCc2c(F)cccc2Cl)n1 [Compound 101]
Biological Activity (% inhibition at 10 μM) [1, 4]: 65%

COc1ccc(Cc2cnc(N)nc2N)cc1OC [Compound 102]
Biological Activity (% inhibition at 10 μM) [1, 4]: 64%

N#Cc1ccc(CSc2nccc(O)n2)cc1 [Compound 105]
Biological Activity (% inhibition at 10 μM) [1, 4]: 53%

N#Cc1c(Cl)nc(Cl)nc1Nc1ccccc1 [Compound 106]
Biological Activity (% inhibition at 10 μM) [1, 4]: 53%

CC(=O)c1c(C)nc(-c2ccc(Cl)cc2)nc1N [Compound 107]
Biological Activity (% inhibition at 10 μM) [1, 4]: 52%

Cc1nc(N)nc(N)c1C=Cc1ccccc1 [Compound 109]
Biological Activity (% inhibition at 10 μM) [1, 4]: 38%

Cc1nc(N)nc(N)c1OCc1ccc(Cl)cc1Cl [Compound 110]
Biological Activity (% inhibition at 10 μM) [1, 4]: 38%

Cc1nc(N)nc(N)c1OCCc1ccc(Cl)cc1 [Compound 111]
Biological Activity (% inhibition at 10 μM) [1, 4]: 37%

Cc1nc(N)nc(N)c1-c1ccc(Cl)c(Cl)c1 [Compound 112]
Biological Activity (% inhibition at 10 μM) [1, 4]: 36%

COc1cc(N)nc(SCc2ccccc2Cl)n1 [Compound 113]
Biological Activity (% inhibition at 10 μM) [1, 4]: 36%

Cc1cc(O)nc(SCc2ccc(Cl)cc2Cl)n1 [Compound 114]
Biological Activity (% inhibition at 10 μM) [1, 4]: 35%

COc1ccc(Cc2c(O)nc(S)nc2O)cc1 [Compound 116]
Biological Activity (% inhibition at 10 μM) [1, 4]: 33%

Cc1ccccc1CCCc1c(C)nc(N)nc1N [Compound 118]
Biological Activity (% inhibition at 10 μM) [1, 4]: 31%

COc1cccc2oc(-c3ccccc3O)cc(=O)c12 [Compound 121]
Biological Activity (% inhibition at 10 μM) ([1]; Table 3, % reduction of hSOD-1 protein levels in HeLa cells, 72 h treatment, 10 μM): 71%

CN1CCN(c2cc(C(F)(F)F)nc3ccc(F)cc23)CC1 [Compound 136]
Biological Activity (% inhibition at 10 μM) ([1]; Table 4 quinazolines, % reduction of hSOD-1 protein levels in HeLa cells following 72 h treatment with 10 μM compound): 64%

Cc1ccc(Nc2nc(N)nc(Cl)n2)cc1 [Compound 164]
Biological Activity (% inhibition at 10 μM) [1, 5]: 43%

Cc1ccc(Nc2nc(N)nc(CCl)n2)c(C)c1 [Compound 165]
Biological Activity (% inhibition at 10 μM) [1, 5]: 99%

CCSc1nc(-c2ccccc2)nc(C(Cl)Cl)n1 [Compound 166]
Biological Activity (% inhibition at 10 μM) [1, 5]: 98%

CSc1nc(-c2ccc(C)cc2)nc(C(Cl)Cl)n1 [Compound 168]
Biological Activity (% inhibition at 10 μM) [1, 5]: 75%

CCCCNc1nc(N)nc(-c2cc(Cl)ccc2O)n1 [Compound 170]
Biological Activity (% inhibition at 10 μM) [1, 5]: 99%

CC(C)Nc1nc(Cl)nc(-c2ccccc2)n1 [Compound 186]
Biological Activity (% inhibition at 10 μM) [1, 5]: 82%

Nc1nc(CCl)nc(Nc2ccccc2)n1 [Compound 187]
Biological Activity (% inhibition at 10 μM) [1, 5]: 77%

CC(Nc1nc(N)nc(Cl)n1)c1ccccc1 (stereo not drawn) [Compound 188]
Biological Activity (% inhibition at 10 μM) [1, 5]: 38%

CNc1nc(N)nc(-c2cc(Cl)ccc2OC)n1 [Compound 189]
Biological Activity (% inhibition at 10 μM) [1, 5]: 35%

Nc1nc(N)nc(-c2ccccc2Cl)n1 [Compound 190]
Biological Activity (% inhibition at 10 μM) [1, 5]: 34%

CCCNc1nc(N)nc(-c2cc(Cl)ccc2OC)n1 [Compound 191]
Biological Activity (% inhibition at 10 μM) [1, 5]: 32%

Nc1nc(N)nc(-c2cccc([N+](=O)[O-])c2)n1 [Compound 192]
Biological Activity (% inhibition at 10 μM) [1, 5]: 32%

Nc1nc(Nc2ccc(Cl)cc2)nc(C(Cl)Cl)n1 [Compound 193]
Biological Activity (% inhibition at 10 μM) [1, 5]: 29%

Nc1ccc(C(=O)Nc2ncccn2)cc1 [Compound 194]
Biological Activity (% inhibition at 10 μM) [1, 6]: 92%

Cc1ccc(C(=O)Nc2ncccc2Cl)cc1 [Compound 197]
Biological Activity (% inhibition at 10 μM) [1, 6]: 74%

Cc1ccnc(NC(=O)c2cccc(Cl)c2)c1 [Compound 198]
Biological Activity (% inhibition at 10 μM) [1, 6]: 67%

Cc1ccc(NC(=O)c2cc(Cl)ccc2Cl)nc1 [Compound 199]
Biological Activity (% inhibition at 10 μM) [1, 6]: 94%

Cc1ccc(C(=O)Nc2ccc(Cl)cn2)cc1C [Compound 200]
Biological Activity (% inhibition at 10 μM) [1, 6]: 39%

Cc1cccc(C(=O)Nc2ccc(Cl)cn2)c1 [Compound 201]
Biological Activity (% inhibition at 10 μM) [1, 6]: 39%

CN(Cc1cnc2nc(N)nc(N)c2n1)c1ccc(C(=O)N[C@@H](CCC(=O)O)C(=O)O)cc1 [methotrexate, reference compound]
levels of SOD-1 protein in HeLa cells ([1]; HeLa cells, 72 hours, dose related, maximal by 10 μM): did not reduce

CCc1nc(N)nc(N)c1-c1ccc(Cl)cc1 [pyrimethamine]
pIC50 [2]: > 5.52 | total protein levels [3]: unaffected
